From publication PMC9578020, “Design, synthesis, molecular modeling, and bioactivity evaluation of 1,10-phenanthroline and prodigiosin (Ps) derivatives and their Copper(I) complexes against mTOR and HDAC enzymes as highly potent and effective new anticancer therapeutic drugs” (Frontiers in Pharmacology, 2022)
pIC50: −log10 of the molar value. Like-named read-outs stand apart in the source and are kept apart here.

Experiments:
[1] = system: MDA-MB-361 (361); test: CCK8 anticancer activity / cytotoxicity test, 361; assay type: cell-based
Procedure: (§1) The IC50 was calculated by SPSS statistics (IBM). […] All cytotoxicity tests were performed in six biological replicates.
(§2) The anticancer activity against 231BR is of highest interest. […] Figure 3 depicts the anticancer activities of these compounds.

[2] = system: MDA-MB-231BR (231BR); test: CCK8 anticancer activity / cytotoxicity test, 231BR; assay type: cell-based
Procedure: as §1, §2

[3] = system: HTB131; test: CCK8 anticancer activity / cytotoxicity test, HTB131; assay type: cell-based
[4] = system: MCF10A; test: CCK8 cytotoxicity test on normal cell line MCF10A
Procedure: (§3) MDA-MB-231 (231) and HTB131 were grown with RPIM-1640 medium (with 10% Fetal Bovine Serum and 2% Penicillin-Streptomycin Solution). MDA-MB-231BR (231BR), CRL-1620 (CRL), and MCF10A were grown with DMEM (with 10% Fetal Bovine Serum and 2% Penicillin-Streptomycin Solution). HTB22 was grown with EMEM (with 10% Fetal Bovine Serum and 2% Penicillin-Streptomycin Solution). Cell lines were taken out from liquid nitrogen and thawed in a 37°C water bath. After thawing, cell cultures were transferred to 75 cm^2 flasks and incubated at 37°C with 5% CO2 for 4–7 days. After reaching 80% of cell confluence, cells were ready for subculturing or testing.
(§4) Anticancer activity tests were performed using a Cell Counting Kit-8 (CCK8, SigmaAldrich) following manufacturer’s instruction ([Shen et al., 2016]). Briefly, 100 µl of diluted cell suspension (approximately 10000 cells) was transferred to 96-well plate, incubated at 37°C with 5% CO2 for 24 h. Then, the compounds were diluted into a serial of concentrations in DMSO. Next, 0.5 µl of diluted compounds were added to 100 µl of cell medium and gently mixed, resulting in the final concentration of DMSO at 0.5%. 100 µl of the compound contained medium were then used to replace the original medium and incubated at 37°C for 48 h. After incubation with compounds, 10 µl of CCK8 reagent was added to each well and mixed by gently tapping the plate. Then, the plate was incubated at 37°C for 2–4 h until the orange color was dark enough to measure. The plate was measured using a Multiskan microplate reader (Fisher Scientific) at 450 nm. The IC50 was calculated by SPSS statistics (IBM). […] All cytotoxicity tests were performed in six biological replicates. Each compound was performed two cycles of screening: primary screening using 10 times serial dilution to determine the approximate concentration and then secondary screening using a narrow concentration range to acquire the accurate IC50.
(§5) The newly synthesized molecules in which their binding affinities were predicted in silico were tested on five different breast cancer lines, MDA-MB-231 (231), MDA-MB-361 (361), HTB131, HTB22, and MDA-MB-231BR (231BR), and one brain cancer cell line, CRL-1620 (CRL). […] Among these cell lines, 231BR attracted most of our interest because it is a brain metastatic specific breast cancer cell line that has 100% rate of brain metastasis and cannot migrate to any other organs ([Yoneda et al., 2001]). The anticancer capacities of each compound were first screened by 10 times dilution to generate different molar concentrations ranging in 5 orders of magnitudes. This wide concentration range was applied for primary screening (Supplementary Table S3) to narrow down the targets. The approximate IC50 was estimated in the primary screening step and used to design the concentration range of the secondary cytotoxicity tests (Supplementary Table S4). […] Anticancer drug taxol (paclitaxel) was used as the reference to estimate the efficacy of each compound. […] The anticancer activity against 231BR is of highest interest. Meanwhile, the same treatments were performed against the normal breast cell line, MCF10A, to test their cytotoxicity. […] A negative logarithm of IC50 was applied to represent the corresponding anticancer activity.

[5] = system: CRL-1620 (CRL); test: CCK8 anticancer activity / cytotoxicity test, CRL; assay type: cell-based
[6] = system: MDA-MB-231 (231); test: CCK8 anticancer activity / cytotoxicity test, 231; assay type: cell-based, human
[7] = CCK8 cytotoxicity test on normal cell line MCF10A; conditions: human, MCF10A normal breast cells
Procedure: as §3, §4, §5

[8] = system: HTB22; test: CCK8 anticancer activity / cytotoxicity test, HTB22; assay type: cell-based; conditions: HTB22, 48 h, 10 times serial dilution; read-out: Approximate IC50, primary screening
Procedure: as §1, §2

[9] = 231BR, 48 h, 10 times serial dilution, read-out: Approximate IC50, primary screening
[10] = HTB131, 48 h, 10 times serial dilution, read-out: Approximate IC50, primary screening
[11] = 231BR, 48 h, narrow concentration range, read-out: IC50, secondary cytotoxicity test
[12] = HTB131, 48 h, narrow concentration range, read-out: IC50, secondary cytotoxicity test
[13] = CRL, 48 h, narrow concentration range, read-out: IC50, secondary cytotoxicity test
[14] = CRL, 48 h, 10 times serial dilution, read-out: Approximate IC50, primary screening

COc1ccc(-c2ccc3ccc4ccc(-c5ccc(OC)cc5)nc4c3n2)cc1.Cc1cc2ccc1OCCOCCOCCOCCOCCOc1ccc(cc1C)-c1ccc3ccc4ccc-2nc4c3n1.F[P-](F)(F)(F)(F)F.[Cu+] [Compound C1]
pIC50 [1]: 5.19
pIC50 [2]: 6.22
pIC50 [2, 9]: > 5.00
pIC50 [3]: 6.64
pIC50 [4]: 6.00
pIC50 [5]: 6.50
pIC50 [6]: 6.39

CCC1=NC(=Cc2[nH]c(-c3cn[nH]c3)cc2OC)C=C1.CCC1=NC(=Cc2[nH]c(-c3cn[nH]c3)cc2OC)C=C1.F[P-](F)(F)(F)(F)F.[Cu+] [Compound C8]
pIC50 [2, 9]: 4.31

CCC1=NC(=Cc2[nH]c(-c3ccn[nH]3)cc2OC)C=C1.CCC1=NC(=Cc2[nH]c(-c3ccn[nH]3)cc2OC)C=C1.F[P-](F)(F)(F)(F)F.[Cu+] [Compound C9]
pIC50 [3, 10]: 4.99

CCC1=NC(=Cc2[nH]c(-c3ncc[nH]3)cc2OC)C=C1.CCC1=NC(=Cc2[nH]c(-c3ncc[nH]3)cc2OC)C=C1.F[P-](F)(F)(F)(F)F.[Cu+] [Compound C10]
pIC50 [2, 11]: 5.66
pIC50 [3, 12]: 5.66
pIC50 ([4]; read-out: IC50, secondary cytotoxicity test, MCF10A normal cell line, 48 h, Table S4): 5.85
pIC50 [5, 13]: 5.80
pIC50 ([6]; 231, 48 h, narrow concentration range, read-out: IC50, secondary cytotoxicity test): 5.54

CCC1=NC(=Cc2[nH]c(-c3ccc4[nH]ccc4c3)cc2OC)C=C1.CCC1=NC(=Cc2[nH]c(-c3ccc4[nH]ccc4c3)cc2OC)C=C1.F[P-](F)(F)(F)(F)F.[Cu+] [Compound C14]
anticancer activity increase of copper(I) complex compared with its ligand ([2]; 231BR, C14 compared with L14): 5.9 times
pIC50 ([4]; read-out: Approximate IC50, primary screening, MCF10A normal cell line, 48 h, 10 times serial dilution): < 3.41
pIC50 [5, 14]: 4.42

CCC1=NC(=Cc2[nH]c(-c3cccc4cc[nH]c34)cc2OC)C=C1.CCC1=NC(=Cc2[nH]c(-c3cccc4cc[nH]c34)cc2OC)C=C1.F[P-](F)(F)(F)(F)F.[Cu+] [Compound C15]
pIC50 [2, 9]: 4.50

CCC1=N/C(=C\c2[nH]c(-c3cccn3C(=O)OC(C)(C)C)cc2OC)C=C1 [Compound L7]
IC50 ([1]; Homo sapiens, MDA-MB-361, 48 h, read-out: IC50, secondary cytotoxicity test): 2.12 µg/mL
pIC50 ([1]; Homo sapiens, MDA-MB-361, 361, 48 h, 10 times serial dilution, read-out: Approximate IC50, primary screening): 5.12 to 6.12
pIC50 ([1]; Homo sapiens, MDA-MB-361, 361, 48 h, Table S4, read-out: IC50, secondary cytotoxicity test): 5.24
pIC50 [2, 9]: 7.12
pIC50 [2, 11]: 7.33
IC50 ([2]; 231BR, 48 h, read-out: IC50, secondary cytotoxicity test): 0.017 µg/mL
pIC50 [3, 10]: 6.12 to 7.12
pIC50 [3, 12]: 6.86
IC50 ([3]; HTB131, 48 h, read-out: IC50, secondary cytotoxicity test): 0.0512 µg/mL
IC50 at 48 h [7]: 3930 nM
pIC50 ([4]; Homo sapiens, MCF-10A, 48 h, read-out: Approximate IC50, primary screening): 6.12 to 7.12
pIC50 [5, 14]: 5.12 to 6.12
pIC50 [5, 13]: 6.39
IC50 ([5]; CRL, 48 h, read-out: IC50, secondary cytotoxicity test): 0.15 µg/mL
pIC50 [8]: 5.12 to 6.12
IC50 ([6]; Homo sapiens, MDA-MB-231, 48 h, read-out: IC50, secondary cytotoxicity test): 0.0278 µg/mL
pIC50 ([6]; Homo sapiens, MDA-MB-231, 231, 48 h, 10 times serial dilution, read-out: Approximate IC50, primary screening): 6.12 to 7.12
pIC50 ([6]; Homo sapiens, MDA-MB-231, 231, 48 h, narrow concentration range, read-out: IC50, secondary cytotoxicity test): 7.12
